Test results from US12466821B2 (Novartis AG, priority 2018, dated 2025).

Test system: Luciferase-encoding HCMV, AD169 strain
Test: CMV Luciferase assay (cellular herpesvirus replication)
Format: cell-based
Settings: Human betaherpesvirus 5, AD169, read-out: CMV-Luc Cellular EC50
Description: For all viral assays, 10 mM DMSO stock compound solutions were serially diluted in DMSO at 3.16 fold dilutions in 96-well clear round bottom plates. Compounds were then diluted in assay media at 1:20 and subsequently 10 μL of these dilutions were added to cells for final compound concentrations ranging either from 0.0159 μM to 50 μM in 0.5% DMSO/assay media, or from 0.00318 to 10 μM in 0.5% DMSO/assay media.
The assay uses a Luciferase-encoding HCMV. Luciferase is expressed under the control of a late viral gene (pp28) promoter in the AD169 strain, so that expression of the reporter is dependent on viral DNA replication. Compounds that affect any stage from viral entry to DNA replication result in a change in luciferase levels.
Viral replication in the presence or absence of compounds was measured by luciferase activity according to the following procedure: Neo-natal normal human dermal fibroblast cells (NN-NHDF, from ATCC cat #201-010) were seeded at 9,000 cells/well in 96-well white solid bottom plate at 80 uL/well in assay media: 2% FBS, 4 mM GlutaMax® (Invitrogen cat #35050) in DMEM/high glucose/no glutamine/no phenol red media (Invitrogen cat #31053). After 2 hrs at 37° C., 10 uL of compound diluted in assay media or 5% DMSO (final 0.5% DMSO/well) was added and the plates returned to 37° C. One hour later, 10 uL of virus diluted in assay media was added at a final Multiplicity of infection (MOI) of 1. Plates were incubated at 37° C. for 72 hrs. At 72 hours post-infection (hpi), plates were equilibrated to room temperature. After 25 min, 100 uL Renilla-Glo® Luciferase Assay Reagent (Promega cat # E2750) was added to each well and incubated for 10 min. Plates were covered to protect from light. Luminescence was measured on the PHERAstar FS®.
The following controls were included in the data analysis: No virus, no compound (0.5% DMSO)=IC (maximal inhibitory control); Virus, no compound (0.5% DMSO)=NC (neutral control). Data were analyzed using an internal Novartis software (Helios). The means of the controls (NC, IC) were used to normalize the results to a % scale using the formula: % Control=100−(100*(Sample value−NC)/(IC−NC)).
For each compound, the software derived an EC50 using a 4-parameter logistical model.

| SMILES | EC50 [nM] |
| --- | --- |
| O=C(NCc1ccc(Cl)cc1)c1cc(C(F)F)c2n(c1=O)CCN(CCN1CCCS1(=O)=O)C2=O [Example 144] | 10400 |
| CS(=O)(=O)CCN1CCn2c(ccc(C(=O)NCc3ccc(Cl)cc3)c2=O)C1=O [Example 51, N-(4-chlorobenzyl)-2-(2-(methylsulfonyl)ethyl)-1,6-dioxo-2,3,4,6-tetrahydro-1H-pyrido[1,2-a]pyrazine-7-carboxamide] | 1870 |
| CCc1cc(C(=O)NCc2ccc(Cl)cc2)c(=O)n2c1C(=O)N(CCN1CCCS1(=O)=O)CC2 [Example 135] | 749 |
| NC1(CN2CCn3c(ccc(C(=O)NCc4ccc(Cl)cc4)c3=O)C2=O)CC1 [Example 197] | 4790 |
| N#CCS(=O)(=O)C1(CN2CCn3c(ccc(C(=O)NCc4ccc(Cl)cc4)c3=O)C2=O)CC1 [Example 108-1, N-(4-Chlorobenzyl)-2-((1-((cyanomethyl)sulfonyl)cyclopropyl)methyl)-1,6-dioxo-2,3,4,6-tetrahydro-1H-pyrido[1,2-a]pyrazine-7-carboxamide] | 228 |
| CS(=O)(=O)C1(CN2CCn3c(c(F)cc(C(=O)NCc4ccc(Cl)cc4)c3=O)C2=O)CC1 [Example 167] | 57.3 |
| O=C(NCc1ccc(Cl)cc1)c1cc(C2CC2)c2n(c1=O)CCN(CCN1CCCS1(=O)=O)C2=O [Example 131] | 949 |
| CS(=O)(=O)CCCN1CCn2c(c(C3CC3)cc(C(=O)NCc3ccc(Cl)cc3)c2=O)C1=O [Example 130] | 13300 |
| CS(=O)(=O)CCCN1CCn2c(c(C(F)(F)F)cc(C(=O)NCc3ccc(Cl)cc3)c2=O)C1=O [Example 146, N-(4-chlorobenzyl)-2-(3-(methylsulfonyl)propyl)-1,6-dioxo-9-(trifluoromethyl)-1,3,4,6-tetrahydro-2H-pyrido[1,2-a]pyrazine-7-carboxamide] | 47200 |
| CS(=O)(=O)C1(CCN2CCn3c(c(F)cc(C(=O)NCc4ccc(Cl)cc4)c3=O)C2=O)CC1 [Example 165] | 10000 |
| O=C(NCc1ccc(Cl)cc1)c1cc(CC2CC2)c2n(c1=O)CCN(CCN1CCCS1(=O)=O)C2=O [Example 133, N-(4-chlorobenzyl)-9-(cyclopropylmethyl)-2-(2-(1,1-dioxidoisothiazolidin-2-yl)ethyl)-1,6-dioxo-1,3,4,6-tetrahydro-2H-pyrido[1,2-a]pyrazine-7-carboxamide] | 1020 |
| CN(C)C(=O)C1(CN2CCn3c(ccc(C(=O)NCc4ccc(Cl)cc4)c3=O)C2=O)CC1 [Example 209] | 2490 |
| CS(=O)(=O)CC1(CN2CCn3c(c(F)cc(C(=O)NCc4ccc(Cl)cc4)c3=O)C2=O)CC1 [Example 168] | 1100 |
| Cc1cc(C(=O)NCc2ccc(Cl)cc2)c(=O)n2c1C(=O)N(CC1(CS(C)(=O)=O)CC1)CC2 [Example 154] | 662 |
| CS(=O)(=O)C1(CCN2CCn3c(ccc(C(=O)NCc4ccc(Cl)cc4)c3=O)C2=O)CC1 [Example 170, N-(4-chlorobenzyl)-2-(2-(1-(methylsulfonyl)cyclopropyl)ethyl)-1,6-dioxo-1,3,4,6-tetrahydro-2H-pyrido[1,2-a]pyrazine-7-carboxamide] | 9030 |
| O=C(NCc1ccc(Cl)cc1)c1ccc2n(c1=O)CCN(CC1(C(=O)N3CCC3)CC1)C2=O [Example 208, 2-((1-(azetidine-1-carbonyl)cyclopropyl)methyl)-N-(4-chlorobenzyl)-1,6-dioxo-1,3,4,6-tetrahydro-2H-pyrido[1,2-a]pyrazine-7-carboxamide] | 5180 |
| CN(CCN1CCn2c(c(F)cc(C(=O)NCc3ccc(Cl)cc3)c2=O)C1=O)S(C)(=O)=O [Example 160, N-(4-chlorobenzyl)-9-fluoro-2-(2-(N-methylmethylsulfonamido)ethyl)-1,6-dioxo-1,3,4,6-tetrahydro-2H-pyrido[1,2-a]pyrazine-7-carboxamide] | 3600 |
| Cc1cc(C(=O)NCc2ccc(Cl)cc2)c(=O)n2c1C(=O)N(CC1(N3CCCS3(=O)=O)CC1)CC2 [Example 150] | 67.7 |
| N#Cc1ccc(CNC(=O)c2ccc3n(c2=O)CCN(CC2(S(=O)(=O)CCCO)CC2)C3=O)cc1F [Example 23] | 452 |
